The numbers were not newly measured in patent US20230414496A1, “BIODEGRADABLE POLYMER-NANOPARTICLE BASED IMPLANTS FOR OCULAR DRUG DELIVERY” (priority 2020, published 2023), which cites them from elsewhere.

The conditions of data set [1]: 400 μg MTX intravitreal injection.
The conditions of data set [2]: 400 μg MTX intravitreal injection, pre-clinical study; read-out: peak MTX concentration (Cmax-MTX).

Where two headings read alike, the source gives them in different places.

In the case of `CN(Cc1cnc2nc(N)nc(N)c2n1)c1ccc(C(=O)N[C@@H](CCC(=O)O)C(=O)O)cc1` [methotrexate], in data set [1] (clinical study and pre-clinical study), the “total duration of MTX release” value was 2 to 6 days. Moreover, the Cmax in data set [1] (clinical study, read-out: peak MTX concentration (Cmax-MTX)) is 360 µM; in data set [2], 400 µM.
